Literature values, collected in PubChem BioAssay AID1259409 (Chemical Carcinogenesis Research Information System (CCRIS), 2018).

Test system: rodent chemically induced tumor inhibition, incidence and multiplicity
Test: CCRIS tumor inhibitor studies
Settings: Dose [Inhibitor]: 0, Route [Inhibitor]: ORAL

## COc1ccc2c(c1)c(CC(=O)O)c(C)n2C(=O)c1ccc(Cl)cc1
Carcinogen: N-BUTYL-N-(4-HYDROXYBUTYL)NITROSAMINE, 3817-11-6, 20 PPM IN DRINKING WATER FOR 40 WK BEGINNING POST CARCINOGEN TREATMENT (STUDY DURATION: 44 WK), Species: RAT, Strain/Sex: F344/MALE, Target Tissue: Type of Lesion: URINARY BLADDER: PAPILLOMA, Dose [Carcinogen]: 0.05% IN DRINKING WATER FOR 4 WK, Promoter: BUTYLATED HYDROXYANISOLE, 25013-16-5
  tumour outcome (control, treated, inhibition, significance): 14/15 (93%), 4/15 (27%), 71%, p<0.01
Carcinogen: N-BUTYL-N-(4-HYDROXYBUTYL)NITROSAMINE, 3817-11-6, 20 PPM IN DRINKING WATER FOR 40 WK BEGINNING POST CARCINOGEN TREATMENT (STUDY DURATION: 44 WK), Species: RAT, Strain/Sex: F344/MALE, Target Tissue: Type of Lesion: URINARY BLADDER: PAPILLOMA, Dose [Carcinogen]: 0.05% IN DRINKING WATER FOR 4 WK, Promoter: SODIUM L-ASCORBATE, 134-03-2
  tumour outcome (control, treated, inhibition, significance): 15/15 (100%), 9/15 (60%), 40%, p<0.01
Carcinogen: N-BUTYL-N-(4-HYDROXYBUTYL)NITROSAMINE, 3817-11-6, 20 PPM IN DRINKING WATER FOR 40 WK BEGINNING POST CARCINOGEN TREATMENT (STUDY DURATION: 44 WK), Species: RAT, Strain/Sex: F344/MALE, Target Tissue: Type of Lesion: URINARY BLADDER: TRANSITIONAL CELL CARCINOMA, Dose [Carcinogen]: 0.05% IN DRINKING WATER FOR 4 WK, Promoter: BUTYLATED HYDROXYANISOLE, 25013-16-5
  tumour outcome (control, treated, inhibition, significance): 10/15 (67%), 1/15 (7%), 90%, p<0.01
Carcinogen: N-BUTYL-N-(4-HYDROXYBUTYL)NITROSAMINE, 3817-11-6, 20 PPM IN DRINKING WATER FOR 40 WK BEGINNING POST CARCINOGEN TREATMENT (STUDY DURATION: 44 WK), Species: RAT, Strain/Sex: F344/MALE, Target Tissue: Type of Lesion: URINARY BLADDER: TRANSITIONAL CELL CARCINOMA, Dose [Carcinogen]: 0.05% IN DRINKING WATER FOR 4 WK, Promoter: SODIUM L-ASCORBATE, 134-03-2
  tumour outcome (control, treated, inhibition, significance): 15/15 (100%), 5/15 (33%), 67%, p<0.01
Carcinogen: N-BUTYL-N-(4-HYDROXYBUTYL)NITROSAMINE, 53609-64-6, 7.5 MG/KG OF DIET STARTING 1 WK PRIOR TO CARCINOGEN DOSE FROM 49 D OF AGE AND CONTINUING FOR DURATION OF STUDY (STUDY, Species: MOUSE, Strain/Sex: BDF/MALE, Target Tissue: Type of Lesion: BLADDER: CARCINOMA, Dose [Carcinogen]: 7.5 MG IN 0.1 ML OF ETHANOL:WATER (20:80) 1/WK FOR 8 WK, Promoter: NONE USED
  tumour outcome (control, treated, inhibition, significance): 14%, 4%, 71%, p<0.05
Carcinogen: N-BUTYL-N-(4-HYDROXYBUTYL)NITROSAMINE, 53609-64-6, 7.5 MG/KG OF DIET STARTING 1 WK PRIOR TO CARCINOGEN DOSE FROM 49 D OF AGE AND CONTINUING FOR DURATION OF STUDY (STUDY, Species: MOUSE, Strain/Sex: BDF/MALE, Target Tissue: Type of Lesion: BLADDER: PAPILLOMA, Dose [Carcinogen]: 7.5 MG IN 0.1 ML OF ETHANOL:WATER (20:80) 1/WK FOR 8 WK, Promoter: NONE USED
  tumour outcome (control, treated, inhibition, significance): 13%, 1%, 92%, p<0.01
Carcinogen: N-BUTYL-N-(4-HYDROXYBUTYL)NITROSAMINE, 53609-64-6, 15 MG/KG OF DIET STARTING 1 WK PRIOR TO CARCINOGEN DOSE AT 49 D OF AGE AND CONTINUING FOR DURATION OF STUDY (STUDY DU, Species: MOUSE, Strain/Sex: BDF/MALE, Target Tissue: Type of Lesion: BLADDER: CARCINOMA, Dose [Carcinogen]: 7.5 MG IN 0.1 ML OF ETHANOL:WATER (20:80) 1/WK FOR 8 WK, Promoter: NONE USED
  tumour outcome (control, treated, inhibition, significance): 14%, 0%, 100%, p<0.01
Carcinogen: N-BUTYL-N-(4-HYDROXYBUTYL)NITROSAMINE, 53609-64-6, 15 MG/KG OF DIET STARTING 1 WK PRIOR TO CARCINOGEN DOSE AT 49 D OF AGE AND CONTINUING FOR DURATION OF STUDY (STUDY DU, Species: MOUSE, Strain/Sex: BDF/MALE, Target Tissue: Type of Lesion: BLADDER: PAPILLOMA, Dose [Carcinogen]: 7.5 MG IN 0.1 ML OF ETHANOL:WATER (20:80) 1/WK FOR 8 WK, Promoter: NONE USED
  tumour outcome (control, treated, inhibition, significance): 13%, 0%, 100%, p<0.01
Carcinogen: N-ETHYL-N-NITROSOUREA, 759-73-9, 20 MG/L IN DRINKING WATER FOR 12 MO ADMINISTERED TO OFFSPRING OF CARCINOGEN-TREATED MOTHERS (STUDY DURATION: 12 MO), Species: RAT, Strain/Sex: ALBINO/MALE, FEMALE, Target Tissue: Type of Lesion: BRAIN: TUMOR, Dose [Carcinogen]: 75 MG/KG BW ADMINISTERED INTRAPERITONEALLY TO MOTHERS 21 D POST CONCEPTION, Promoter: NONE USED
  tumour outcome (control, treated, inhibition, significance): 36/42 (86%), 14/25 (56%), 35%, p<0.05
Carcinogen: N-ETHYL-N-NITROSOUREA, 759-73-9, 20 MG/L IN DRINKING WATER FOR 12 MO ADMINISTERED TO OFFSPRING OF CARCINOGEN-TREATED MOTHERS (STUDY DURATION: 12 MO), Species: RAT, Strain/Sex: ALBINO/MALE, FEMALE, Target Tissue: Type of Lesion: KIDNEY: TUMOR, Dose [Carcinogen]: 75 MG/KG BW ADMINISTERED INTRAPERITONEALLY TO MOTHERS 21 D POST CONCEPTION, Promoter: NONE USED
  tumour outcome (control, treated, inhibition, significance): 19/42 (45%), 8/25 (32%), 29%, not significant
